Legend:
Bacillus cereus = assay: agar plate disc-diffusion, antibacterial activity; assay type: cell-based
Protocol: (§1) The agar plate disc-diffusion method was applied. […] The discs were then placed onto the surface of agar plates (nutrient agar for bacteria and Sabouraud's dextrose agar for fungi) seeded with the test organism. Each plate contained 15 mL of the agar medium, previously seeded with 0.2 mL of the broth culture of each organism pregrown for 18 hours. The plates were incubated at 37° C. for 48 hours, and 72 hours for fungi. The inhibition zones was measured in mm. Discs impregnated with DMSO were used as a control, and its inhibition zone was subtracted from the tested compound actual inhibition zone.

Escherichia coli = assay: agar plate disc-diffusion, antibacterial activity; assay type: cell-based
Protocol: as §1

Pseudomonas aeruginosa = assay: agar plate disc-diffusion, antibacterial activity; assay type: cell-based
Protocol: as §1

Staphylococcus aureus = assay: agar plate disc-diffusion, antibacterial activity; assay type: cell-based
Protocol: as §1

Aspergillus flavus = assay: agar plate disc-diffusion, antifungal activity; assay type: cell-based
Protocol: (§2) The agar plate disc-diffusion method was applied. Sterilized filter papers (6 mm in diameter) were wetted with 10 μL of a solution of 2-(benzo[d]oxazol-2-yl)-N′-(4-(dimethylamino)benzoyloxy)acetimidamide (3) to be tested, containing 10 mg/mL in DMSO, and the discs were allowed to air dry. The discs were then placed onto the surface of agar plates (nutrient agar for bacteria and Sabouraud's dextrose agar for fungi) seeded with the test organism. Each plate contained 15 mL of the agar medium, previously seeded with 0.2 mL of the broth culture of each organism pregrown for 18 hours. The plates were incubated at 37° C. for 48 hours, and 72 hours for fungi. The inhibition zones was measured in mm. Discs impregnated with DMSO were used as a control, and its inhibition zone was subtracted from the tested compound actual inhibition zone.

[1] = system: Chrysosporium keratinophilum; assay: agar plate disc-diffusion, antifungal activity; assay type: cell-based
Protocol: as §1

different microbes = assay: antimicrobial screening, overall statement; assay type: cell-based; conditions: against different microbes (bacteria and fungi screened)
Protocol: as §2

[2] = A = concentration of comp. = 10,000 uL
[3] = B = concentration of comp. = 30,000 uL
[4] = C = concentration of comp. = 50,000 uL

O=C(O)c1cn(C2CC2)c2cc(N3CCNCC3)c(F)cc2c1=O [Cip., ciprofloxacin, reference compound]
inhibition zone (Bacillus cereus; [2]): 29 mm
inhibition zone (Bacillus cereus; [3]): 31 mm
inhibition zone (Bacillus cereus; [4]): 42 mm
inhibition zone (Escherichia coli; [2]): 30 mm
inhibition zone (Escherichia coli; [3]): 39 mm
inhibition zone (Escherichia coli; [4]): 60 mm
inhibition zone (Pseudomonas aeruginosa; [2]): 29 mm
inhibition zone (Pseudomonas aeruginosa; [3]): 30 mm
inhibition zone (Pseudomonas aeruginosa; C =): 53 mm
inhibition zone (Staphylococcus aureus; [2]): 43 mm
inhibition zone (Staphylococcus aureus; [3]): 44 mm
inhibition zone (Staphylococcus aureus; C = concentration of comp.): 53 mm
inhibition zone (Aspergillus flavus; [2]): 28 mm
inhibition zone (Aspergillus flavus; [3]): 31 mm
inhibition zone (Aspergillus flavus; [4]): 43 mm
inhibition zone [1, 2]: 30 mm
inhibition zone [1, 3]: 33 mm
inhibition zone [1, 4]: 55 mm

CN(C)c1ccc(C(=O)O/N=C(\N)Cc2nc3ccccc3o2)cc1 [Compound 3, 2-(benzo[d]oxazol-2-yl)-N′-(4-(dimethylamino)benzoyloxy)acetimidamide]
inhibition zone (Bacillus cereus; [2]): 26 mm
inhibition zone (Bacillus cereus; [3]): 28 mm
inhibition zone (Bacillus cereus; [4]): 41 mm
inhibition zone (Escherichia coli; [2]): 27 mm
inhibition zone (Escherichia coli; [3]): 34 mm
inhibition zone (Escherichia coli; [4]): 49 mm
inhibition zone (Pseudomonas aeruginosa; [2]): 25 mm
inhibition zone (Pseudomonas aeruginosa; [3]): 28 mm
inhibition zone (Pseudomonas aeruginosa; C =): 39 mm
inhibition zone (Staphylococcus aureus; [2]): 17 mm
inhibition zone (Staphylococcus aureus; [3]): 22 mm
inhibition zone (Staphylococcus aureus; C = concentration of comp.): 34 mm
inhibition zone (Aspergillus flavus; [2]): 21 mm
inhibition zone (Aspergillus flavus; [3]): 25 mm
inhibition zone (Aspergillus flavus; [4]): 37 mm
inhibition zone [1, 2]: 25 mm
inhibition zone [1, 3]: 29 mm
inhibition zone [1, 4]: 46 mm
antimicrobial activities (different microbes): excellent
melting point: 165 to 166 °C

From patent US11905259B1, “2-(benzo[d]oxazol-2-yl)-N′-(4-(dimethylamino)benzoyloxy)acetimidamide as an antimicrobial compound” (KING FAISAL UNIVERSITY, priority 2023, dated 2024)
